These results are taken from patent US20140248252A1, “New Salt And Medical Use” (Pfizer Limited, priority 2011, published 2014).

For one series, the system named is uric acid in urine. Briefly: Multiple dose study (TS, 14 days): fraction of uric acid excreted in urine. It counts as in vivo, human. As for the experimental part: (§1) Multiple oral doses of 4-[2-(5-amino-1H-pyrazol-4-yl)-4-chlorophenoxy]-5-chloro-2-fluoro-N-(1,3-thiazol-4-yl)benzenesulfonamide TS dispersion for oral administration, and placebo, were investigated for 14 days, as follows: • healthy subjects, 300 mg twice daily (BID,) • healthy subjects, 450 mg BID, and • elderly subjects, 300 mg BID.
(§2) Subjects were fasted overnight prior to the morning doses and for at least 2 hours prior to the evening doses. Food was withheld for at least 2 hours postdose.
Uric acid was also measured in urine collected over 24 hours prior to dosing on Day 1, and then on Days 6, 14 and 16. The percent excreted fraction of uric acid in urine was calculated and analyzed with a linear mixed effects model.

In series [1] the test system is uric acid in blood. The series is described as follows: Multiple dose study (TS, 14 days): uric acid in blood of healthy and elderly subjects. Type of series: in vivo, human. How it is done: (§3) Uric acid measurements were performed using a commercial colorimetric assay kit (Beckman Coulter).
as §1, §2
A total of 49 subjects were enrolled in the study of which 39 received 4-[2-(5-amino-1H-pyrazol-4-yl)-4-chlorophenoxy]-5-chloro-2-fluoro-N-(1,3-thiazol-4-yl)benzenesulfonamide TS and 10 received placebo.

In a further series the target is T1, URAT-1 transporter (Homo sapiens, UniProt Q96S37).
T1 construct: expressed in transfected cells; host or cells: HEK293 cells, transient transfection with Lipofectamine 2000
T1 sequence (Q96S37 1-553): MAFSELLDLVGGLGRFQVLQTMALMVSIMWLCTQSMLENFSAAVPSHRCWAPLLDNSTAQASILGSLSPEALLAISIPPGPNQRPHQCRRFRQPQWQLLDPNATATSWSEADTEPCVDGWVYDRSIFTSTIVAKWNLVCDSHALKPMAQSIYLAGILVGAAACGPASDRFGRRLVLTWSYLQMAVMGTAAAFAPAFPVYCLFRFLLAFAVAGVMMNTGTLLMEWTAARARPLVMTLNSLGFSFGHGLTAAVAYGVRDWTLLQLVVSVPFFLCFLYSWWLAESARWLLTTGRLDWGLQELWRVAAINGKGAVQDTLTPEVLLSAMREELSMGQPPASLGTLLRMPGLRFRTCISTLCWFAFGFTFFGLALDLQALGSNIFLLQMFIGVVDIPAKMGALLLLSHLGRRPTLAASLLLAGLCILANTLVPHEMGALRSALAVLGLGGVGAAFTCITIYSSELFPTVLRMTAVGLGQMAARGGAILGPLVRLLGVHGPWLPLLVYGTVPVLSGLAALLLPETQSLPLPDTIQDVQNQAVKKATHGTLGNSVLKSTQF
The series is described as follows: URAT-1 inhibitor activity: [14C]-uric acid uptake in HEK-URAT1 cells. It counts as cell-based. To be noted: [14C]-uric acid (20 μM), 2 minutes, normalised to the standard compound benzbromarone, read-out: inhibition of uric acid uptake (IC50). As for the experimental part:
The potency of 4-[2-(5-amino-1H-pyrazol-4-yl)-4-chlorophenoxy]-5-chloro-2-fluoro-N-(1,3-thiazol-4-yl)benzenesulfonamide as an inhibitor of the URAT-1 transporter was determined as follows.
HEK293 cells were grown in medium consisting of Dulbecco's modified Eagle medium (DMEM) with L-GlutaMax (4.5 g of glucose per litre), supplemented with heat-inactivated foetal calf serum (10% v/v), 100 U/mL penicillin and 100 μg/mL streptomycin. The HEK cells were routinely cultured in 75 cm^2 tissue culture flasks in a humidified incubator at approximately 37° C. in approximately 95% air/5% CO2. […]
One day after transfection, culture medium was removed from the wells and the cells were pre-incubated with 0.2 mL of chlorine-free incubation medium (125 mM Na-gluconate, 4.8 mM K-gluconate, 1.3 mM Ca-gluconate, 1.2 mM KH2PO4, 1.2 mM MgSO4, 5.6 mM D-glucose, 25 mM HEPES, pH 7.4), in the absence and presence of 4-[2-(5-amino-1H-pyrazol-4-yl)-4-chlorophenoxy]-5-chloro-2-fluoro-N-(1,3-thiazol-4-yl)benzenesulfonamide (0-30 μM), for 15 minutes at approximately 37° C. […] The concentrations of [^14C]-uric acid were determined by liquid scintillation counting (LSC). The inhibition of [^14C]-uric acid transport was also determined in the presence of the known inhibitor benzbromarone (30 μM). […]
The amount of radioactivity present in cell lysate samples was determined by liquid scintillation counting (LSC). […]

The test system of series [2] is uric acid in blood. The series is described as follows: Multiple dose study (SDD, 14 days): uric acid in blood of healthy subjects. It counts as in vivo, human. To be noted: 600 mg BID; 30 subjects enrolled in the study. How it is done:
as §3
Multiple oral doses of 100 mg twice daily (BID), 300 mg BID, and 600 mg BID of 4-[2-(5-amino-1H-pyrazol-4-yl)-4-chlorophenoxy]-5-chloro-2-fluoro-N-(1,3-thiazol-4-yl)benzenesulfonamide SDD dispersion for oral administration, and placebo, were investigated for 14 days. Subjects were fasted overnight prior to the morning doses and for at least 2 hours prior to the evening doses. Food was withheld for at least 2 hours postdose.
A total of 30 subjects (all male) were enrolled in the study and 27 subjects completed the study (three subjects were withdrawn due to adverse events during treatment with 600 mg BID 4-[2-(5-amino-1H-pyrazol-4-yl)-4-chlorophenoxy]-5-chloro-2-fluoro-N-(1,3-thiazol-4-yl)benzenesulfonamide).

SMILES strings stand for the structures.

Usually IC50 stands for the concentration that inhibits the measured activity by half. Turning to `Nc1[nH]ncc1-c1cc(Cl)ccc1Oc1cc(F)c(S(=O)(=O)Nc2cscn2)cc1Cl` [4-[2-(5-amino-1H-pyrazol-4-yl)-4-chlorophenoxy]-5-chloro-2-fluoro-N-(1,3-thiazol-4-yl)benzenesulfonamide], the “excreted fraction of uric acid in urine after dosing” value with uric acid in urine (Day 16) is given as “returns to baseline by Day 16”. In addition, the “excreted fraction of uric acid in urine during dosing” value with uric acid in urine (TS BID, 24 hour urine) is “increases during dosing”. In addition, the “median blood uric acid concentration versus LLN” value with uric acid in blood [1] (450 mg BID, Day 3) is “fell below LLN”; in the series with uric acid in blood [1] (all cohorts (300 mg and 450 mg BID), Day 6), “below the LLN”. In the series on uric acid in blood [1] (TS BID for 14 days), the “Concentrations of uric acid in blood following dosing” value was “decreased”. In the series on uric acid in blood [1] (all subjects (i.e. by Day 16)), the “time until blood uric acid returned to above the LLN after cessation of dosing” value is recorded as at most 2 days. The IC50 on URAT-1 transporter came to 3.54 µM. Also, the “subjects withdrawn due to adverse events” value in the series on uric acid in blood [2] is reported as “three”.
